What was measured:
[1] = target: T1, triacylglycerol hydrolase (TGH) (Mus musculus, UniProt Q8VCT4); test: Proteome-wide selectivity screening, TGH; assay type: biochemical; conditions: IC50 based
T1 construct: from tissue
T1 sequence (Q8VCT4 19-565): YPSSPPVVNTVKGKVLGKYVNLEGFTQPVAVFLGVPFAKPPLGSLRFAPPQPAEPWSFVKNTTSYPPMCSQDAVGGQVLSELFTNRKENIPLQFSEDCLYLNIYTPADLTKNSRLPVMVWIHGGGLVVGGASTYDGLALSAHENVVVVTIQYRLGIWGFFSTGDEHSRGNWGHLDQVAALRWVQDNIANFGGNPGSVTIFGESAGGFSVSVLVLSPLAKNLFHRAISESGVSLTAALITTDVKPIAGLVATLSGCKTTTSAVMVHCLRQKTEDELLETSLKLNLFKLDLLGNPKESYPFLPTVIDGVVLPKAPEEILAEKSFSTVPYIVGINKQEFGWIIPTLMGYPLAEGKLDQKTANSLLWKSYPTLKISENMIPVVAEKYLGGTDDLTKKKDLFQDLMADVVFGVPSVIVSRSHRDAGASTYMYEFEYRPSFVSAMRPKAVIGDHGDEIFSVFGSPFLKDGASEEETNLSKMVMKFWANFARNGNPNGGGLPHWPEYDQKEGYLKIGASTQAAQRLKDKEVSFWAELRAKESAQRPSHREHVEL
Description: (§1) The present invention concerns the synthesis and evaluation of a systematic series of α-keto oxazole inhibitors having variations at the C2 acyl side chain along with results of the proteome-wide selectivity screening of the candidate inhibitors. The screening protocol is described by Leung, D.; Hardouin, C.; et al. Nature Biotech. 2003, 21, 687-691.
(§2) Selectivity Screening. […] Consequently a method for proteomic-wide screening capable of globally profiling all mammalian serine hydrolases was developed (Leung, D.; Hardouin, C.; et al. Nature Biotech. 2003, 21, 687-691) and studies have shown that the α-ketoheterocycle class of inhibitors generally are exquisitely selective for FAAH (Boger, D. L.; Miyauchi, H.; et al. J. Med. Chem. 2005, 48, 1849-1856; Leung, D.; Du, W.; et al. Bioorg. Med. Chem. Lett. 2005, 15, 1423-1428; Lichtman, A. H.; Leung, D.; et al. J. Pharmacol. Exp. Ther. 2004, 311, 441-448). However, two enzymes did emerge as potential competitive targets: triacylglycerol hydrolase (TGH) and an uncharacterized membrane-associated hydrolase that lacks known substrates or function (KIAA1363). In this screen, IC50 values are typically higher than the measured Ki values, but the relative potency, the magnitude of binding affinity differences and the rank order binding determined in the assay parallels that established by standard substrate assays. […]

KIAA1363 = target: T2, KIAA1363 (Mus musculus, UniProt Q8BLF1); test: Proteome-wide selectivity screening, KIAA1363; assay type: biochemical; conditions: IC50 based
T2 construct: from tissue
T2 sequence (Q8BLF1 1-408): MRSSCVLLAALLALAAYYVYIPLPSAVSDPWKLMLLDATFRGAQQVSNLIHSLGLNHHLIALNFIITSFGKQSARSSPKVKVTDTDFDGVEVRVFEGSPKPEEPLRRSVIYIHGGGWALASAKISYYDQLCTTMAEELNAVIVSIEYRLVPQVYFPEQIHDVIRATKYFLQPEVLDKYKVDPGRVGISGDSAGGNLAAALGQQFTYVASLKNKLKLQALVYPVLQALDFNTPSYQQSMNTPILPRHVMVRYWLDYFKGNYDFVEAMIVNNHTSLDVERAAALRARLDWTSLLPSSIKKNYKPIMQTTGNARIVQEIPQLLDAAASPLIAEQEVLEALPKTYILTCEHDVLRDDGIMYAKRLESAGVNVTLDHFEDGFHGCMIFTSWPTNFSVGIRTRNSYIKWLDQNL
Description: as §1, §2

| selectivity for FAAH over TGH (in words) [1] | selectivity for FAAH over KIAA1363 (in words) (KIAA1363) | Structure (SMILES) |
| --- | --- | --- |
| moderately selective | very selective | O=C(CCCCCCc1ccccn1)c1ncc(-c2ccccn2)o1 [5e, 1-Oxo-1-[5-(2-pyridyl)oxazol-2-yl]-7-(2-pyridyl)heptane] |
| moderately selective | very selective | O=C(CCCCCCc1cccnc1)c1ncc(-c2ccccn2)o1 [5f, 1-Oxo-1-[5-(2-pyridyl)oxazol-2-yl]-7-(3-pyridyl)heptane] |
